Here are results for four molecules from patent US20250302927A1, “MODIFIED FACTOR XA POLYPEPTIDES AND METHODS OF USE” (The United States of America, as represented by the …, priority 2022, published 2025).

The subject of data set [1] is Male CD-1 mice. Description: Tail clip bleeding model. The format is in vivo. The note with it: for Bleeding profile (bleeding graphs): apixaban 4 mg/kg, FIG. 4D. The method, then:
Tail clip bleeding model: Animal experiments were performed at the U.S. FDA/CBER Division of Veterinary Services in accordance with the protocol approved by the institutional animal care and use committee (IACUC). Male CD-1 mice (Charles River Laboratories, Kingston, NY, USA) were 5-8 weeks old weighing 28-34 grams. […] After 5 minutes, 3 mm of tail were cut, after which the tail was immersed in a tube with predefined volume of 0.9% NaCl at 37° C. and allowed to bleed for 30 minutes under close observation. Blood loss was determined by measuring hemoglobin content and expressed as μl/mouse.
The design of the in vivo study in mice is depicted in FIG. 3B. […] The tails of the mice were clipped, and bleeding monitored by measuring bleeding time (FIG. 3C) and blood loss (FIG. 3D). […] All bleeding episodes were plotted using the length and number of episodes of bleeds for each individual mouse (FIG. 3E) to determine the bleeding profiles.
Additional experiments were performed in the mouse model, as above, but with the inclusion of andexanet alfa for comparison. The experimental strategy is depicted in FIG. 4A.

Data set [2] deals with T1, Factor VII (FVII) (Homo sapiens, UniProt P08709).
T1 sequence (P08709 61-466): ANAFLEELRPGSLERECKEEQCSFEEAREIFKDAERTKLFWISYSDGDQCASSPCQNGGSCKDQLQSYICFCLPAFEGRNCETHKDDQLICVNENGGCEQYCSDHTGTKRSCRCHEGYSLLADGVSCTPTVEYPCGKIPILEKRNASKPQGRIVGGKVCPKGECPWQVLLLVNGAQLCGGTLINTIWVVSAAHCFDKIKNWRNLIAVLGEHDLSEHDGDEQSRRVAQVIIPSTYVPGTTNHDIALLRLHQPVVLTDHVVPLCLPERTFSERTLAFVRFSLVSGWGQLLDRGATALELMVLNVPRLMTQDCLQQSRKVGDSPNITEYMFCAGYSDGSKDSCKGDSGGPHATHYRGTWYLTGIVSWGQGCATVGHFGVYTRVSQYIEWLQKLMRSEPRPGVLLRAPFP
Description: 1H NMR binding of apixaban to Factor VII. The settings on record: stoichiometric amounts, FIG. 1H. An excerpt: FIGS. 1A-1H show design and functional characterization of low affinity FXa variants. FIG. 1A illustrates the computational strategy using RosettaDesign and homology insertion. […] Variants 69 and 70 are located on the same region between H311 and T318. […] FIG. 1F is a graph showing the rate of chromogenic substrate cleavage in pure buffer systems by FXa variants at different concentrations. […] Values for IC50±SD were obtained from fitted curves. […] The top spectrum is the result of superposition of ligand and protein signals with no alteration. The reference NMR spectrum (middle) contains only sharp signals, as expected for an NMR spectrum of a small molecule.
The final models allowed identification of clashes with apixaban. Following manual inspection of the models, 21 designs were selected. […] (ii) Two proteins were used as homology models to identify potential mutations to include as insertions. The human factor VII (FVII) (PDB ID: 1DAN) crystal structure was superimposed onto the human FXa (PDB ID: 2P16) crystal structure and differences in amino acid identity were analyzed. Final insertion identities were based on proximity to binding pocket and length. […] Seven FXa variants were selected based on this strategy. Some of these designs failed experimental validations. In a follow up round of homology-based designs, the insertions from Factor VII were decreased in length and number. […]

Data set [3] has as its system tissue factor (TF)-triggered pooled normal human plasma. Briefly: Thrombin generation assay in plasma spiked with apixaban. The format is biochemical. The method, then:
Thrombin generation assay: The procoagulant activity of FXa variants was evaluated by a previously described thrombin generation assay in tissue factor (TF)-triggered pooled normal human plasma (Affinity Biologicals Inc, Ontario, Canada). […] Fluorescence (product of thrombin substrate consumption) was recorded in a kinetic mode at 37° C. using a Tecan Infinite F500 every 45 seconds for a period of 1.7 hours. In-house software was used to calculate calibrate thrombin generation assay (using an internal thrombin calibrator CAT® from Stago, Parsippany, NJ, USA) and calculate thrombin peak height parameter.

The target in data set [4] is T2, Tissue factor pathway inhibitor (TFPI) (Homo sapiens, UniProt P10646).
T2 construct: BioMedica Diagnostics (assay kit)
T2 sequence (P10646 29-304): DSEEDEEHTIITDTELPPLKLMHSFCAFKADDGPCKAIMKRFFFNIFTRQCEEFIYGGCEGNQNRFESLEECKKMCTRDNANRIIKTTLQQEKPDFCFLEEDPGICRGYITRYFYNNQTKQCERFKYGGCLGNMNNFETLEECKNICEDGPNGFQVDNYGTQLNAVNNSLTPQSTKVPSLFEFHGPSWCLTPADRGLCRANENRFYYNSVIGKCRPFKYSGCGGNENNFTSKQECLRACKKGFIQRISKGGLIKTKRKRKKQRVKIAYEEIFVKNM
Description: ACTICHROME TFPI assay. The settings on record: 4 nM variants vs 100 nM andexanet alfa, FIG. 5. The format is biochemical. The method, then: Tissue factor pathway inhibitor (TFPI) plays a very important role in regulation of the procoagulant activity of tissue factor (TF). […] TFPI activity was determined using ACTICHROME® TFPI assay (BioMedica Diagnostics) according to manufacturer's protocol.

The nature of data set [5]: Inhibition of FXa variant chromogenic substrate cleavage by apixaban (IC50). The format is biochemical, human. The note with it: for IC50: apixaban, fixed amounts of FXa variants, increasing apixaban concentrations. The method, then: Chromogenic FXa activity assay: The FXa activity assay based on CS11(65)a chromogenic substrate (Biophen) was performed as described below. […] For each sample, substrate cleavage was calculated by taking the average rate over the time frame between 1 and 2 minutes.
Activity and inhibitory concentration were determined for a larger series of variants (FIGS. 2A and 2B). Activities for all variants were determined using the rate of chromogenic substrate cleavage in pure buffer system at different FXa concentrations. Variants were assigned into five brackets (FIG. 2A). […] To be assigned as potentially beneficial the combined scores were ***** but the individual score could not be less than **.

For data set [6], the target named is Tissue factor pathway inhibitor (TFPI), P10646.

With `COc1ccc(-n2nc(C(N)=O)c3c2C(=O)N(c2ccc(N4CCCCC4=O)cc2)CC3)cc1` [apixaban, reference compound], the “Bleeding profile (bleeding graphs)” value in data set [1] is “mostly uninterrupted flow of blood”. In addition, in data set [1] (tail clip, FIG. 3C), the “Bleeding time, apixaban group compared to the control group” value is “significantly greater”. In data set [2], the “binding to FVII by NMR” value was “does not bind to FVII”.

As to “Variant 61: modified Factor Xa polypeptide, W439A, S4 subsite, SEQ ID NO: 2”, the Michaelis-Menten constant (Km) in data set [3] (activity in the presence of a fixed amount (1 μM) of apixaban, read-out: apparent Km) came to 1.1 ± 0.171 µM. Further, in data set [3] (thrombin generation assay as worded), the “potency compared with wild type FXa” value is “less potent than wild type FXa”. For the same molecule, the Bleeding time entry is “significantly reduced bleeding time” in data set [1] (1 mg/kg infused 5 min after apixaban, FIG. 3C) and “significant decrease” in data set [1] (apixaban dose of 4 mg/kg, FIG. 4B). Further, the Blood loss result in data set [1] (1 mg/kg infused 5 min after apixaban, FIG. 3D) is “successfully reversed the anticoagulant effect of apixaban”; in data set [1] (apixaban dose of 4 mg/kg, FIG. 4C), “significant decrease”. Also, in data set [1], the “Bleeding profile (bleeding graphs)” value is on record as “multiple breaks in blood flowing from the tail cut”. Moreover, the “response to TFPI (TFPI activity)” value in data set [4] is listed as “much smaller response to TPFI compared to andexanet alfa”. Besides, the “fold higher IC50 values for apixaban compared to the wild-type FXa” value in data set [5] (FIG. 1G) is on record as about 350 fold. In addition, the 50% inhibitory concentration (IC50) in data set [5] is over 251 nM.

In data set [5], “Variant 65: modified Factor Xa polypeptide, G440A, S1 subsite, SEQ ID NO: 8” yielded an IC50 of 151 to 250 nM.

B1: FXa variant 70 (amino acids 312-317 replaced with STYVPG) (protein)
chain: GPANSFLEEMKKGHLERECMEETCSYEEAREVFEDSDKTNEFWNKYKDGDQCETSPCQNQGKCKDGLGEYTCTCLEGFEGKNCELFTRKLCSLDNGDCDQFCHEEQNSVVCSCARGYTLADNGKACIPTGPYPCGKQTLERRKRSVAQATSSSGEAPDSITWKPYDAADLDPTENPFDLLDFNQTQPERGDNNLTRIVGGQECKDGECPWQALLINEENEGFCGGTILSEFYILTAAHCLYQAKRFKVRVGDRNTEQEEGGEAVHEVEVVIKHSTYVPGTYDFDIAVLRLKTPITFRMNVAPACLPERDWAESTLMTQKTGIVSGFGRTHEKGRQSTRLKMLEVPYVDRNSCKLSSSFIITQNMFCAGYDTKQEDACQGDSGGPHVTRFKDTYFVTGIVSWGEGCARKGKYGIYTKVTAFLKWIDRSMKTRGLPKAKSHAPEVITSSPLK
For B1, the “TFPI activity (ACTICHROME TFPI assay)” value in data set [6] is “both variants #61 and #70 showed much smaller response to TPFI compared to andexanet alfa”.
